Source: PubChem BioAssay (NCI)
“And” between values parts separate entries of the source, which are not always exact repeats. Equal entries are not always repeated.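 These data come from cells grown in 96-well plates and exposed to compound for 48 hours at five concentrations. The concentration for 50% growth inhibition is given as GI50. TGI marks complete inhibition of growth.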

Experiments:
Test in all cases: growth of human tumour cells (NCI), 48 h
TK-10 renal = tested on: TK-10 renal
OVCAR-5 ovarian = tested on: OVCAR-5 ovarian
HCT-15 colon = tested on: HCT-15 colon
NCI-H522 lung = tested on: NCI-H522 lung
HOP-18 NSCLC = tested on: HOP-18 NSCLC
SK-MEL-5 melanoma = tested on: SK-MEL-5 melanoma
DLD-1 colon = tested on: DLD-1 colon
SF-539 CNS = tested on: SF-539 CNS
SK-MEL-28 melanoma = tested on: SK-MEL-28 melanoma
MDA-MB-231 breast = tested on: MDA-MB-231 breast

| SMILES | TGI (TK-10 renal) | TGI (OVCAR-5 ovarian) | TGI (HCT-15 colon) | TGI (NCI-H522 lung) | TGI (HOP-18 NSCLC) [µM] | TGI (SK-MEL-5 melanoma) | TGI (DLD-1 colon) [µM] | TGI (SF-539 CNS) | GI50 (TK-10 renal) [µM] | GI50 (OVCAR-5 ovarian) [µM] | GI50 (HCT-15 colon) [µM] | GI50 (NCI-H522 lung) [µM] | GI50 (SK-MEL-5 melanoma) [µM] | GI50 (SK-MEL-28 melanoma) | TGI (SK-MEL-28 melanoma) | GI50 (MDA-MB-231 breast) [µM] | TGI (MDA-MB-231 breast) | GI50 (DLD-1 colon) [µM] | GI50 (SF-539 CNS) [µM] | GI50 (HOP-18 NSCLC) [µM] |
| --- | --- | --- | --- | --- | --- | --- | --- | --- | --- | --- | --- | --- | --- | --- | --- | --- | --- | --- | --- | --- |
| O=C(NCC(O)CNC(=O)C(F)(F)F)C(F)(F)F | > 100 µM | > 100 µM | > 100 µM | > 100 µM | > 100 | > 100 µM | > 100 | > 100 µM | – | – | – | – | – | – | – | – | – | – | – | – |
| COc1cc(O)c2c(c1)C(=O)c1cc3c(c(O)c1C2=O)C(OC1OC(C)C(O)C(O)C1OC)C(OC)C(C)(O)C3=O (stereo not drawn) | 61.4 µM | 8.48 µM and 9.24 µM | 12.2 µM and 7.35 µM | 6.7 µM and 9.45 µM | 15.4 | 2.57 µM and 2.26 µM | 11.6 | 4.52 µM and 5.99 µM | 4.29 | 2.18 | 2.65 | 2.18 | 1.27 | 2.24 µM and 1.74 µM | 5.97 µM and 5.4 µM | 2.66 | 9.2 µM | – | – | – |
| COc1cc2c(cc1OC)C(=O)Cc1ccc(OC)c(OC)c1CN(C)CC2 | > 100 µM | > 100 µM | > 100 µM | > 100 µM | > 100 | > 100 µM | > 100 | > 100 µM | – | – | – | – | – | – | > 100 µM | – | – | – | – | – |
| O=C1c2ccccc2C(=O)N1C/C=C/CO | > 100 µM | – | > 100 µM | > 100 µM | > 100 | > 100 µM | > 100 | > 100 µM | – | – | – | – | – | – | > 100 µM | – | – | – | – | – |
| CSCCOC(=O)C(=[N+]=[N-])c1ccc([N+](=O)[O-])cc1 | > 100 µM | > 100 µM | > 100 µM | > 100 µM | – | – | > 100 | > 100 µM | – | – | – | – | – | – | > 100 µM | – | – | – | – | – |
| COc1ccc2oc(C(=O)O)c3c2c1CCC3 | > 100 µM | – | > 100 µM | – | > 100 | > 100 µM | > 100 | > 100 µM | – | – | – | – | – | – | > 100 µM | – | – | – | – | – |
| CC1OC(OC2C(CO)OC(O[C@H]3CC[C@@]4(C)C(=CC[C@H]5[C@@H]6C[C@@H]7O[C@]8(CC[C@@H](C)CN8)[C@@H](C)[C@@H]7[C@@]6(C)CC[C@@H]54)C3)C(O)C2O)C(O)C(O)C1O (stereo partly drawn) | > 100 µM | > 100 µM | > 100 µM | > 100 µM | > 100 | > 100 µM | > 100 | > 100 µM | – | – | – | – | – | – | > 100 µM | – | – | – | – | – |
| Cc1cc2c(c3oc(C4(C)OC4C4OC4C)cc(=O)c13)C(=O)c1c(O)c(C3CC(C)(N(C)C)C(O)C(C)O3)cc(C3CC(N(C)C)C(O)C(C)O3)c1C2=O (stereo not drawn) | 0.0116 µM and 0.0501 µM | 0.000244 µM and 0.00111 µM | – | – | 0.00334 | 0.0014 µM and 0.000447 µM | – | – | 0.00027 | – | – | – | – | – | 0.00277 µM and 0.000596 µM | – | 0.000547 µM and 0.00161 µM | 0.00017 | 0.000117 | – |
| CCOC(=O)/C(C#N)=C1/C(O)=C(C(=O)OC)C(C(=O)OC)=C1C(=O)OC | > 100 µM | > 100 µM | > 100 µM | > 100 µM | – | > 100 µM | > 100 | > 100 µM | – | – | – | – | – | – | > 100 µM | – | – | – | – | – |
| CC[C@@H]1C[C@H]2CC3c4[nH]c5ccc(O)cc5c4CCN(C2)C31 | > 100 µM | > 100 µM | > 100 µM | – | > 100 | – | – | > 100 µM | – | – | – | – | – | – | > 100 µM | – | – | – | – | – |
| CNC(=O)c1cccc2c(Nc3ccc(NS(C)(=O)=O)cc3OC)c3cccc(C)c3nc12 | 8.2 µM | 3.54 µM | 2.34 µM | 2.51 µM | 3.36 | 1.9 µM | – | 0.661 µM | – | – | – | – | – | – | 10.9 µM | – | – | – | – | – |
| C[n+]1ccc(-c2c3nc(c(-c4cc[n+](C)cc4)c4ccc([n-]4)c(-c4cc[n+](C)cc4)c4nc(c(-c5cc[n+](C)cc5)c5ccc2[n-]5)C=C4)C=C3)cc1.[I-].[Zn+2] | 38 µM | > 100 µM | > 100 µM | 9.88 µM | 41.3 | 37.4 µM | 84.3 | 39.9 µM | 15.2 | > 100 | > 100 | 1.61 | 15.9 | 5.54 µM | 20 µM | – | – | 29.3 | 16.2 | 16.9 |
| CC(C)(C)OC(=O)NC(CO)c1cccc(OCc2ccccc2)c1 (stereo not drawn) | > 100 µM | > 100 µM | > 100 µM | > 100 µM | > 100 | > 100 µM | > 100 | > 100 µM | – | – | – | – | – | – | > 100 µM | – | – | – | – | – |
| O=c1oc(=O)c2oc3ccccc3oc1=2 | > 100 µM | > 100 µM | > 100 µM | > 100 µM | > 100 | – | > 100 | > 100 µM | – | – | – | – | – | – | > 100 µM | – | – | – | – | – |
| O=S(O)CCCSSc1ccccc1 | > 100 µM | > 100 µM | > 100 µM | 42.4 µM | > 100 | > 100 µM | > 100 | 62.9 µM | – | – | – | – | – | – | > 100 µM | – | – | – | – | – |
| CC1=C[P+](Cc2ccccc2)(c2ccccc2)CC1 (stereo not drawn) | > 100 µM | > 100 µM | > 100 µM | > 100 µM | > 100 | > 100 µM and 56.7 µM and 84.1 µM | > 100 | > 100 µM | – | – | – | – | – | – | > 100 µM | – | – | – | – | – |
| COc1ccc(OC(C(=O)O)c2ccccc2)c2c1CCCC2=O (stereo not drawn) | > 100 µM | > 100 µM | > 100 µM | > 100 µM | > 100 | > 100 µM | > 100 | > 100 µM | – | – | – | – | – | – | > 100 µM | – | – | – | – | – |
